Format in all cases: in vivo
One assay relates to Amaranthus retroflexus. Briefly: Post-emergence weed control test (greenhouse pot, spray). The following applies: 3 weeks after spraying. An excerpt: (§1) The activity level standard of harmful plant destruction (i.e. growth inhibition rate) is as follows: • Level 10: completely dead; • Level 9: above 90% growth inhibition rate; • Level 8: above 80% growth inhibition rate; • Level 7: above 70% growth inhibition rate; • Level 6: above 60% growth inhibition rate; • Level 5: above 50% growth inhibition rate; • Level 4: above 40% growth inhibition rate; • Level 3: above 30% growth inhibition rate; • Level 2: above 20% growth inhibition rate; • Level 1: below 20% growth inhibition rate; • Level 0: no effect.
(§2) The above described growth inhibition rates are fresh weight inhibition rates.
(§3) Experiment of post-emergence test: monocotyledonous and dicotyledonous weed seeds as well as main crop seeds (i.e., wheat, corn, rice, soybean, cotton, oilseed rape, millet and sorghum) were put into a plastic pot loaded with soil, then covered with 0.5-2 cm of soil, and the seeds were allowed to grow in good greenhouse environment. The test plants were treated at 4-5 leaf stage 2-3 weeks after sowing. The test compounds of the invention were dissolved in acetone respectively, then added with Tween-80 and diluted by a certain amount of water to give solutions with certain concentrations. The solution was sprayed to the plants with a sprayer. The plants were cultured for 3 weeks in the greenhouse.

The subject of the next assay is Veronica polita. The description is as above. The following applies: 3 weeks after spraying; for weed control effect (activity level), Veronica polita, comparison experiment: 300 g/ha.
Description: as §1, §2, §3

A further assay concerns Rorippa indica. The description is as above. The following applies: 3 weeks after spraying; for weed control effect (activity level), Rorippa indica, comparison experiment: 300 g/ha.
Description: as §1, §2, §3

The next assay concerns Chenopodiaceae. Described as above. The following applies: 3 weeks after spraying.
Description: as §1, §2, §3

In a further assay the test system is Setaria viridis. The assay is described as above. The following applies: 3 weeks after spraying; for weed control effect (activity level), Setaria viridis, comparison experiment: 300 g/ha; for inhibition at 2000 g/ha: Setaria viridis, 504 h, read-out: weed control effect (activity level, fresh weight growth inhibition rate), Setaria viridis.
Description: as §1, §2, §3

For a further assay, the system named is Digitaria sanguinalis. Briefly: Post-emergence weed control test (comparative experiment). The following applies: 300 g/ha, 3 weeks after spraying.
Description: as §1, §2, §3

In the next assay the test system is Echinochloa crus-galli. The assay is described as above. The following applies: 300 g/ha, 3 weeks after spraying.
Description: as §1, §2, §3

The mark [1] stands for this setting: Amaranthus retroflexus, 504 h, read-out: weed control effect (activity level, fresh weight growth inhibition rate), Amaranthus retroflexus.
The mark [2] stands for this setting: Veronica polita, 504 h, read-out: weed control effect (activity level, fresh weight growth inhibition rate), Veronica polita.
[3] abbreviates: 504 h, read-out: weed control effect (activity level, fresh weight growth inhibition rate), Chenopodiaceae.

Regarding `CCCCCOC(=O)Oc1cc(Cl)nnc1-c1cc(C)nn1C` [Compound 1-1], the inhibition at 2000 g/ha in the assay on Amaranthus retroflexus (setting [1]), with Veronica polita (setting [2]), with Chenopodiaceae (setting [3]) and in the assay with Setaria viridis was 100% throughout. Moreover, in the assay on Veronica polita, the “weed control effect (activity level), Veronica polita, comparison experiment” value was 10. In addition, the “weed control effect (activity level), Rorippa indica, comparison experiment” value in the assay on Rorippa indica turned out to be 10. Further, in the assay with Setaria viridis, the “weed control effect (activity level), Setaria viridis, comparison experiment” value amounted to 10. Besides, in the assay on Digitaria sanguinalis, the “weed control effect (activity level), Digitaria sanguinalis, comparison experiment” value was 8 (Level 8: above 80% growth inhibition rate). The “weed control effect (activity level), Echinochloa crus-galli, comparison experiment” value in the assay with Echinochloa crus-galli is 8 (Level 8: above 80% growth inhibition rate).
`Cc1cc(-c2nnc(Cl)cc2OC(=S)Oc2cccs2)n(C)n1` [Compound 1-5]: the inhibition at 2000 g/ha with Amaranthus retroflexus (setting [1]), in the assay with Veronica polita (setting [2]), with Chenopodiaceae (setting [3]) and with Setaria viridis was 100% each time.
As for `Cc1cc(-c2nnc(Cl)cc2OC(C)OC(=O)OC(C)C)n(C)n1` (stereo not drawn) [Compound 1-6], the inhibition at 2000 g/ha in the assay on Amaranthus retroflexus (setting [1]), in the assay with Veronica polita (setting [2]), in the assay on Chenopodiaceae (setting [3]) and in the assay on Setaria viridis was 100% throughout.
In the case of `CCSC(=O)Oc1cc(Cl)nnc1-c1cc(C)nn1C` [Compound 1-8], the inhibition at 2000 g/ha in the assay with Amaranthus retroflexus (setting [1]), with Veronica polita (setting [2]), in the assay on Chenopodiaceae (setting [3]) and in the assay with Setaria viridis was 100% each time.
`Cc1cc(-c2nnc(Cl)cc2OC(=O)N2CCOCC2)n(C)n1` [Compound 1-9]: the inhibition at 2000 g/ha with Amaranthus retroflexus (setting [1]), in the assay on Veronica polita (setting [2]), with Chenopodiaceae (setting [3]) and in the assay with Setaria viridis was 100% in each case.
In the case of `Cc1cc(-c2nnc(Cl)cc2O)n(C)n1` [Compound 1], the inhibition (as a rule, how much of the control response was suppressed) at 3000 g/ha in the assay with Amaranthus retroflexus (Amaranthus retroflexus, 504 h, 3000 g/ha, read-out: weed control effect (activity level, fresh weight growth inhibition rate), Amaranthus retroflexus) came to 100%; in the assay on Veronica polita (Veronica polita, 504 h, 3000 g/ha, read-out: weed control effect (activity level, fresh weight growth inhibition rate), Veronica polita) it was 100%; with Rorippa indica (Rorippa indica, 504 h, 3000 g/ha, read-out: weed control effect (activity level, fresh weight growth inhibition rate), Rorippa indica) it was 100%; in the assay on Chenopodiaceae (504 h, 3000 g/ha, read-out: weed control effect (activity level, fresh weight growth inhibition rate), Chenopodiaceae) it was 100%. The “weed control effect (activity level), Veronica polita, comparison experiment” value in the assay with Veronica polita was determined as 10. The “weed control effect (activity level), Rorippa indica, comparison experiment” value in the assay with Rorippa indica turned out to be 10. Moreover, the “weed control effect (activity level), Setaria viridis, comparison experiment” value in the assay on Setaria viridis was 10. Besides, the “weed control effect (activity level), Digitaria sanguinalis, comparison experiment” value with Digitaria sanguinalis is 7 (Level 7: above 70% growth inhibition rate). Besides, the “weed control effect (activity level), Echinochloa crus-galli, comparison experiment” value with Echinochloa crus-galli is on record as 8 (Level 8: above 80% growth inhibition rate).
With `Cn1nccc1-c1nnc(Cl)cc1O` [Compound 29], the “weed control effect (activity level, fresh weight growth inhibition rate), Amaranthus retroflexus” value in the assay on Amaranthus retroflexus (3000 g/ha) was 10 (Level 10: completely dead). Moreover, the “weed control effect (activity level), Veronica polita, comparison experiment” value in the assay with Veronica polita is listed as 9 (Level 9: above 90% growth inhibition rate). Also, the “weed control effect (activity level, fresh weight growth inhibition rate), Veronica polita” value in the assay with Veronica polita (3000 g/ha) is on record as 10 (Level 10: completely dead). Moreover, the “weed control effect (activity level), Rorippa indica, comparison experiment” value in the assay with Rorippa indica is on record as 10. In the assay on Rorippa indica (3000 g/ha), the “weed control effect (activity level, fresh weight growth inhibition rate), Rorippa indica” value is reported as 10 (Level 10: completely dead). Moreover, the “weed control effect (activity level, fresh weight growth inhibition rate), Chenopodiaceae” value in the assay on Chenopodiaceae (3000 g/ha) is 10 (Level 10: completely dead). For the same compound, the “weed control effect (activity level), Setaria viridis, comparison experiment” value in the assay on Setaria viridis is reported as 10. Also, the “weed control effect (activity level), Digitaria sanguinalis, comparison experiment” value with Digitaria sanguinalis is reported as 6 (Level 6: above 60% growth inhibition rate). The “weed control effect (activity level), Echinochloa crus-galli, comparison experiment” value in the assay on Echinochloa crus-galli was 8 (Level 8: above 80% growth inhibition rate).
Turning to `CCc1cnn(C)c1-c1nnc(Cl)cc1O` [Compound 81], the “weed control effect (activity level, fresh weight growth inhibition rate), Amaranthus retroflexus” value in the assay on Amaranthus retroflexus (3000 g/ha) was 10 (Level 10: completely dead). In addition, the “weed control effect (activity level, fresh weight growth inhibition rate), Veronica polita” value with Veronica polita (3000 g/ha) is reported as 10 (Level 10: completely dead). Further, the “weed control effect (activity level, fresh weight growth inhibition rate), Rorippa indica” value in the assay on Rorippa indica (3000 g/ha) was 10 (Level 10: completely dead). Further, the “weed control effect (activity level, fresh weight growth inhibition rate), Chenopodiaceae” value in the assay on Chenopodiaceae (3000 g/ha) was 10 (Level 10: completely dead).
With `Cn1ncc(C2CC2)c1-c1nnc(Cl)cc1O` [Compound 82], the “weed control effect (activity level, fresh weight growth inhibition rate), Amaranthus retroflexus” value with Amaranthus retroflexus (3000 g/ha) is listed as 10 (Level 10: completely dead). In the assay on Veronica polita (3000 g/ha), the “weed control effect (activity level, fresh weight growth inhibition rate), Veronica polita” value is 10 (Level 10: completely dead). Also, the “weed control effect (activity level, fresh weight growth inhibition rate), Rorippa indica” value with Rorippa indica (3000 g/ha) is given as 10 (Level 10: completely dead). Moreover, in the assay with Chenopodiaceae (3000 g/ha), the “weed control effect (activity level, fresh weight growth inhibition rate), Chenopodiaceae” value is recorded as 10 (Level 10: completely dead).
On to `Cn1ncc(C(F)(F)F)c1-c1nnc(Br)cc1O` [Compound 95], for which the “weed control effect (activity level, fresh weight growth inhibition rate), Amaranthus retroflexus” value in the assay on Amaranthus retroflexus (3000 g/ha) was 10 (Level 10: completely dead). In addition, the “weed control effect (activity level, fresh weight growth inhibition rate), Veronica polita” value with Veronica polita (3000 g/ha) is given as 10 (Level 10: completely dead). For the same compound, the “weed control effect (activity level, fresh weight growth inhibition rate), Rorippa indica” value with Rorippa indica (3000 g/ha) is on record as 10 (Level 10: completely dead). Moreover, the “weed control effect (activity level, fresh weight growth inhibition rate), Chenopodiaceae” value with Chenopodiaceae (3000 g/ha) is 10 (Level 10: completely dead).
`CC(=O)n1nccc1-c1nnc(Cl)cc1O` [Compound 130]: the “weed control effect (activity level, fresh weight growth inhibition rate), Amaranthus retroflexus” value in the assay with Amaranthus retroflexus (3000 g/ha) is listed as 10 (Level 10: completely dead). In addition, in the assay with Veronica polita (3000 g/ha), the “weed control effect (activity level, fresh weight growth inhibition rate), Veronica polita” value is on record as 10 (Level 10: completely dead). Moreover, in the assay with Rorippa indica (3000 g/ha), the “weed control effect (activity level, fresh weight growth inhibition rate), Rorippa indica” value is 10 (Level 10: completely dead). Also, the “weed control effect (activity level, fresh weight growth inhibition rate), Chenopodiaceae” value in the assay with Chenopodiaceae (3000 g/ha) was 10 (Level 10: completely dead).
For `Oc1cc(Cl)nnc1-c1ccccc1` [Control Compound A, reference compound], the “weed control effect (activity level), Veronica polita, comparison experiment” value with Veronica polita is 5 (Level 5: above 50% growth inhibition rate). Also, in the assay with Rorippa indica, the “weed control effect (activity level), Rorippa indica, comparison experiment” value is 2 (Level 2: above 20% growth inhibition rate). Moreover, the “weed control effect (activity level), Setaria viridis, comparison experiment” value with Setaria viridis is 2 (Level 2: above 20% growth inhibition rate). Also, in the assay on Digitaria sanguinalis, the “weed control effect (activity level), Digitaria sanguinalis, comparison experiment” value is on record as 0. Besides, the “weed control effect (activity level), Echinochloa crus-galli, comparison experiment” value in the assay with Echinochloa crus-galli came out at 0.
`CCCCCCCCSC(=O)Oc1cc(Cl)nnc1-c1ccccc1` [Control Compound B, reference compound]: in the assay with Veronica polita, the “weed control effect (activity level), Veronica polita, comparison experiment” value is given as 5 (Level 5: above 50% growth inhibition rate). In addition, the “weed control effect (activity level), Rorippa indica, comparison experiment” value in the assay with Rorippa indica is given as 3 (Level 3: above 30% growth inhibition rate). The “weed control effect (activity level), Setaria viridis, comparison experiment” value with Setaria viridis is 2 (Level 2: above 20% growth inhibition rate). In addition, the “weed control effect (activity level), Digitaria sanguinalis, comparison experiment” value with Digitaria sanguinalis amounted to 0. The “weed control effect (activity level), Echinochloa crus-galli, comparison experiment” value in the assay with Echinochloa crus-galli turned out to be 0.
